{"source": "patent US9167818B2", "about": "“Active compounds combinations comprising prothioconazole and fluxapyroxad” (BAYER CROPSCIENCE AG, priority 2010, dated 2015)", "tested_on": "Alternaria solani", "assay": "Alternaria test (tomatoes) / preventive", "type": "in vivo, Alternaria solani on tomatoes", "conditions": "single active, preventive spray, evaluated 3 days after inoculation", "from_the_text": "The expected activity for a given combination of two active compounds can be calculated as follows (cf. Colby, S. R., “Calculating Synergistic and Antagonistic Responses of Herbicide Combinations”, Weeds 1967, 15, 20-22): If • X is the efficacy when active compound A is applied at an application rate of m ppm (or g/ha), • Y is the efficacy when active compound B is applied at an application rate of n ppm (or g/ha), • E is the efficacy when the active compounds A and B are applied at application rates of m and n ppm (or g/ha), respectively, and then\nThe degree of efficacy, expressed in % is denoted. 0% means an efficacy which corresponds to that of the control while an efficacy of 100% means that no disease is observed.\nIf the actual fungicidal activity exceeds the calculated value, then the activity of the combination is superadditive, i.e. a synergistic effect exists. In this case, the efficacy which was actually observed must be greater than the value for the expected efficacy (E) calculated from the abovementioned formula.\nTo produce a suitable preparation of active compound, 1 part by weight of active compound is mixed with the stated amounts of solvent and emulsifier, and the concentrate is diluted with water to the desired concentration. To test for preventive activity, young plants are sprayed with the preparation of active compound at the stated rate of application. After the spray coating has dried on, the plants are inoculated with an aqueous spore suspension of Alternaria solani. The plants are then placed in an incubation cabinet at approximately 20° C. and a relative atmospheric humidity of 100%. The test is evaluated 3 days after the inoculation. 0% means an efficacy which corresponds to that of the untreated control while an efficacy of 100% means that no disease is observed.", "data": [{"molecule": "Fc1ccc([C@]2(Cn3cncn3)O[C@H]2c2ccccc2Cl)cc1", "note": "(racemic) [Epoxiconazole, epoxiconazole]", "values": [{"measurement": "Efficacy in % found", "setting": "application rate 0.5 ppm a.i.", "result": 41, "unit": "%"}, {"measurement": "Efficacy in % found", "setting": "application rate 1 ppm a.i.", "result": 53, "unit": "%"}, {"measurement": "Efficacy in % found", "setting": "application rate 2 ppm a.i.", "result": 59, "unit": "%"}]}, {"molecule": "OC(Cc1ccccc1Cl)(Cn1[nH]cnc1=S)C1(Cl)CC1", "note": "(stereo not drawn) [(A) Prothioconazole, 2-[2-(1-chlorocyclopropyl)-3-(2-chlorophenyl)-2-hydroxypropyl]-1,2-dihydro-3H-1,2,4-triazole-3-thione]", "values": [{"measurement": "Efficacy in % found", "setting": "application rate 0.5 ppm a.i.", "result": 0, "unit": "%"}, {"measurement": "Efficacy in % found", "setting": "application rate 1 ppm a.i.", "result": 18, "unit": "%"}, {"measurement": "Efficacy in % found", "setting": "application rate 2 ppm a.i.", "result": 41, "unit": "%"}]}, {"molecule": "Cn1cc(C(=O)Nc2ccccc2-c2cc(F)c(F)c(F)c2)c(C(F)F)n1", "note": "[(B) Fluxapyroxad, 3-(difluoromethyl)-1-methyl-N-(3′,4′,5′-trifluorobiphenyl-2-yl)pyrazole-4-carboxamide]", "values": [{"measurement": "Efficacy in % found", "setting": "application rate 0.25 ppm a.i.", "result": 62, "unit": "%"}, {"measurement": "Efficacy in % found", "setting": "application rate 0.5 ppm a.i.", "result": 65, "unit": "%"}, {"measurement": "Efficacy in % found", "setting": "application rate 1 ppm a.i.", "result": 87, "unit": "%"}]}]}
